This experiment addresses c-Met (Homo sapiens, UniProt P08581). Put plainly: radiometric protein kinase assay with recombinant human c-Met. In kind it is biochemical.

The source of these data is PMC4306130 (Scientific Reports, 2015).

As a reminder, the IC50 is the concentration at which inhibition is half-maximal.

c-Met, sequence (P08581 25-307): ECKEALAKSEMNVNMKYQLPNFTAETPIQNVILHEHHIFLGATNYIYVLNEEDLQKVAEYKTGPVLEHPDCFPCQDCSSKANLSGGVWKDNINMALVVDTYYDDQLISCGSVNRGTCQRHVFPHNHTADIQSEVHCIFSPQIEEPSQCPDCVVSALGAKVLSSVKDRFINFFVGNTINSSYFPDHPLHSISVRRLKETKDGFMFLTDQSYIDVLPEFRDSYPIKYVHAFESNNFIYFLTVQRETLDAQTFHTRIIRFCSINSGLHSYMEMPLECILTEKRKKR
c-Met, sequence (P08581 308-1390): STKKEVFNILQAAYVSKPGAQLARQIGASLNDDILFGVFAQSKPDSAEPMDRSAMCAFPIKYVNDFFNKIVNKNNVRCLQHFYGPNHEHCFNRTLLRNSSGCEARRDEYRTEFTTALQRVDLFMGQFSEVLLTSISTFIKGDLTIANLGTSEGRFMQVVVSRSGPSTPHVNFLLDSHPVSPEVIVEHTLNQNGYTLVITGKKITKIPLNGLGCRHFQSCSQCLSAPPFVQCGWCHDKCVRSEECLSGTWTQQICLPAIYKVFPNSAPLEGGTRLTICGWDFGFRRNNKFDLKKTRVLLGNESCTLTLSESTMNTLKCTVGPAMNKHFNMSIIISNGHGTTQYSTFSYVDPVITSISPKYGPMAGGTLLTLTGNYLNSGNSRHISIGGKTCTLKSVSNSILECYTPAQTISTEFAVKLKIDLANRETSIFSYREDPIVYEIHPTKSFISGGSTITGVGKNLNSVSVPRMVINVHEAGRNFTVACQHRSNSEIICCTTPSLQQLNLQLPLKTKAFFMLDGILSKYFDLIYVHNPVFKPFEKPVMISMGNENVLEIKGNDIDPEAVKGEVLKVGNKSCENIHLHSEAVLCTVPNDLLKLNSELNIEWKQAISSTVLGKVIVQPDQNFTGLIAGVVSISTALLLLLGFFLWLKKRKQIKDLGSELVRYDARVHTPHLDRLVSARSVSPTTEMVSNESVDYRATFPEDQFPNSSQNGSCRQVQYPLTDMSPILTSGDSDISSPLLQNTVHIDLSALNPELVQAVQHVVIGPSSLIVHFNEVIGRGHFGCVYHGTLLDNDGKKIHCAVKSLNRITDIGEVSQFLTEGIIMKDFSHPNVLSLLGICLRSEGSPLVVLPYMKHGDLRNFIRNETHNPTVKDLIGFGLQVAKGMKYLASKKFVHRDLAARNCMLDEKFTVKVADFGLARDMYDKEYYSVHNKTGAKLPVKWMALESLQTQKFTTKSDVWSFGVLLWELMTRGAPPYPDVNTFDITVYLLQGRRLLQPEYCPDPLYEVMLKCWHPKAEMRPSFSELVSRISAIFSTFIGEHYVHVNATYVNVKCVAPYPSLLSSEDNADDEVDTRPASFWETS

`COc1c(C=O)c(O)cc2c1C(=O)c1ccccc1C2=O` [damnacanthal, 3-hydroxy-1-methoxy-anthraquinone-2-aldehyde]: the IC50 amounted to 5.1 ± 0.1 µM.
